Data: patent publication US7071168B2, “Anti-cancer compounds and methods related thereto” (The Regents of the University of Colorado, priority 1998, dated 2006)

Assays:
[1] = test system: bradykinin response of isolated guinea pig ileum; assay: Anti-bradykinin activity on isolated guinea pig ileum; settings: for GPI: pA2 for bradykinin antagonist activity on isolated guinea pig ileum: higher numbers indicate higher potency
Outline: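 Bradykinin concentration-effect curves were run in the absence and presence of compound. Tissue: 25 mm terminal ileum from male Hartley guinea pigs fasted overnight, held at 1 g tension in O2/CO2-bubbled Krebs' solution after 1 h equilibration.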

SCLC strain SHP-77 [2] = assay: Inhibition of tumor growth in vivo in nude mice, SCLC strain SHP-77; settings: for inhibition of growth in vivo of SCLC strain SHP-77: figure legends, nude mice, i.p. daily
Experimental: Representative peptide and non-peptide compounds having high in vitro cytotoxic activity were tested against implanted tumors in vivo. Athymic nude mice were implanted subcutaneously with either single cell suspensions (2 million SCLC cells or 1 million NSCLC cells) or with small fragments (3×3 mm) of tumors minced from previously grown nude mouse heterotransplants. On the seventh day after tumor implantation groups of 5 mice bearing implants were injected intraperitoneally daily with the compounds being tested at 1, 5, or 10 mg/kg/day; control animals were injected with an equal volume of isotonic saline. Tumor size was measured with a caliper three times per week. Tumor volume was calculated by the formula: Volume (cc)=π×(length)×(width)^2/6

SCLC strain SHP-77 [3] = assay: Colorimetric tetrazolium (MTT) assay for cell survival, SCLC strain SHP-77; type: cell-based, human
Outline: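 MTT assay: cells seeded overnight, treated in triplicate across a concentration range for 4 days at 37 °C, 5% CO2. On day 5, MTT was added for 4 h; formazan was dissolved in acidified isopropanol and absorbance read.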

[4] = target: T1, cloned human bradykinin B2 receptors (Homo sapiens, UniProt P30411); assay: Anti-bradykinin activity on cloned human B2 receptors (CHO cells, Cytosensor microphysiometer); type: cell-based; settings: for HUMAN: pA2 for bradykinin antagonist potency on cloned human B2 receptors: higher numbers indicate higher potency
T1 sequence (P30411 1-391): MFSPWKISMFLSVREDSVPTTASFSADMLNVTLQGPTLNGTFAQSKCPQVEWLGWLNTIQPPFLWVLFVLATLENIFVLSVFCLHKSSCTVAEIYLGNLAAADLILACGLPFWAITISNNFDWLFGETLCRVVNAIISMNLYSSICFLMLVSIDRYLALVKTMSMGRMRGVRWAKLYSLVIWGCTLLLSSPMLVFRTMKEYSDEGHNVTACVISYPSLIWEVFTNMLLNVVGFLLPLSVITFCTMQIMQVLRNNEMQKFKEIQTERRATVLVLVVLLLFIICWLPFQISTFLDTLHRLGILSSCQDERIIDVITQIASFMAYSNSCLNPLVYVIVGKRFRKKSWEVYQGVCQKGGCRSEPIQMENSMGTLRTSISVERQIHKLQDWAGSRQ
Experimental: In general, Anti-bradykinin activity was determined by the classical guinea pig ileum assay and on Chinese hamster ovary (CHO) cells expressing cloned human bradykinin B2 receptors. Anti-tumor activity was determined on cultured human cancer cell lines using the standard tetrazolium (MTT) assay.
Chinese hamster ovary cells containing cloned and expressed human bradykinin B2 receptors were grown in cell cups of the Cytosensor microphysiometer in Ham's F-12 medium supplemented with sodium pyruvate and 10% FBS (Gibco 11765-054). For assay the cells were transferred to Ham's F-12 without bicarbonate or serum (Gibco 21700-075) and placed in the Cytosensor. Concentration-response curves were constructed to bradykinin in the presence or absence of new compounds.

[5] = isolated guinea pig ileum, pD2 of bradykinin is 7.4
[6] = cloned human B2 receptors, pD2 for bradykinin is 11

Molecule | GPI: pA2 for bradykinin antagonist activity on isolated guinea pig ileum [1, 5] | MTT: ED50 for killing of SCLC strain SHP-77 in vitro (SCLC strain SHP-77 [3]; SCLC strain SHP-77 in vitro) | GPI: pA2 for bradykinin antagonist activity on isolated guinea pig ileum ([1]; Table 1) | MTT: ED50 for killing of SCLC strain SHP-77 in vitro (SCLC strain SHP-77 [3]; Table 1, SHP-77, MTT, 4 days) | HUMAN: pA2 for bradykinin antagonist potency on cloned human B2 receptors ([4]; Table 1) | HUMAN: pA2 for bradykinin antagonist potency on cloned human B2 receptors [4, 6] | also measured
DDD-(DArg-Igl-Arg-Matp)2 [M638] | Inact | 0.6 µM | – | – | – | – | inhibition of growth in vivo of SCLC strain SHP-77 (SCLC strain SHP-77 [2]): inhibition of growth
DArg-Arg-Pro-Hyp-Gly-Igl-Ser-DIgl-Oic-Arg [B9430, reference compound] | – | – | 8.2 | 120 µM | – | – | pA2 (antagonist) on guinea pig ileum ([1]; text of Example XVII): 7.9; inhibition of growth in vivo of SCLC strain SHP-77 (SCLC strain SHP-77 [2]): inhibition of growth; pA2 (antagonist) on cloned human B2 receptors ([4]; text of Example XVIII): 10.5
DDD-(DArg-Arg-Aud-Pac-2Nal-Arg)2 [M516] | – | – | 0 | 1.4 µM | Ag | – | –
CC1(C)CC(NC(=O)[C@H](Cc2csc3ccccc23)NC(=O)CCCCCCCCCCC(=O)N[C@@H](Cc2csc3ccccc23)C(=O)NC2CC(C)(C)NC(C)(C)C2)CC(C)(C)N1 [M430] | 5.3 | 18 µM | – | – | – | 11.3 | –
CN1CCN(NC(=O)C(Cc2ccc3ccccc3c2)NC(=O)C=Cc2ccc(N(C)C)cc2)CC1 (stereo not drawn) [M472] | 5.3 | 25 µM | – | – | – | Inact | –
O=C(C=Cc1cccnc1)NC(Cc1ccc2ccccc2c1)C(=O)NC1CCCCC1 (stereo not drawn) [M408] | 4.6 | 22 µM | – | – | – | 11.5 | –
DDD-(Pac-2Nal-Arg)2 [M484] | – | – | Inact | 25 µM | Inact | – | –
F5c-2Nal-Arg-NH2 [M450] | – | – | 4.9 | 26 µM | Inact | – | –
O=C(C=Cc1ccc(NC(=O)CCCCCCCCCCC(=O)Nc2ccc(C=CC(=O)NC(Cc3ccc4ccccc4c3)C(=O)NC3CCNCC3)cc2)cc1)NC(Cc1ccc2ccccc2c1)C(=O)NC1CCNCC1 (stereo not drawn) [M606] | 5.0 | 30 µM | – | – | – | 10 | –
CC1(C)CC(NC(=O)C(Cc2csc3ccccc23)NC(=O)C=Cc2c(F)c(F)c(F)c(F)c2F)CC(C)(C)N1 (stereo not drawn) [M418] | 7.0 | 3.8 µM | – | – | – | 10.3 | –
CN(C)c1ccc(C=CC(=O)NC(Cc2ccc3ccccc3c2)C(=O)N2CCSCC2)cc1 (stereo not drawn) [M478] | 5.1 | 30 µM | – | – | – | Inact | –
α-DDD-(Lys-B9430-OMe)2 [M600] | – | – | 6.4 | 1.2 µM | Ag | – | –
F5c-OBT-Arg [M550] | – | – | Inact | 80 µM | Ag | – | –
DDD-(DArg-F5F-Arg)2 [M822] | – | – | Mixed | 25 µM | – | – | inhibition of growth in vivo of SCLC strain SHP-77 (SCLC strain SHP-77 [2]): inhibition of growth
DDD-(pABz-2Nal-Arg-NH2)2 [M500] | – | – | 0 | 40 µM | 11.4 | – | –
F5c-2Nal-Arg [M446] | – | – | 4.7 | 60 µM | 9 | – | –
DDD-(Lys-DArg-Arg-Pro-Hyp-Gly-Igl-Ser-DIgl-Oic-Arg)2 [B10054] | – | – | 7.1 | 0.3 µM | – | – | inhibition of growth of the SCLC line SHP-77 (SCLC strain SHP-77 [2]; dose of 5 mg/kg/day): marked inhibition of growth; inhibition of growth in vivo of SCLC strain SHP-77 (SCLC strain SHP-77 [2]): inhibition of growth
DDD-(Arg-DIgl-Oic-Arg)2 [M226] | – | – | 5.7 | 35 µM | Inact | – | –
F5c-hPhe-Arg [M420] | – | – | 7.0 | 60 µM | 10.9 | – | –
CC1(C)CC(NC(=O)C(Cc2cccnc2)NC(=O)C=Cc2c(F)c(F)c(F)c(F)c2F)CC(C)(C)N1 (stereo not drawn) [M438] | 4.8 | 26 µM | – | – | – | 10 | –
CN1CCN(NC(=O)C(Cc2ccc3ccccc3c2)NC(=O)C=Cc2c(F)c(F)c(F)c(F)c2F)CC1 (stereo not drawn) [M470] | 5.2 | 11 µM | – | – | – | Inact | –
Cc1ccc(CSCC(NC(=O)C=Cc2c(F)c(F)c(F)c(F)c2F)C(=O)NC2CC(C)(C)NC(C)(C)C2)cc1 (stereo not drawn) [M456] | 5.3 | 4.7 µM | – | – | – | Inact | –
F5c-OBS-Arg [M520] | – | – | 6.1 | Inact | 7 | – | –
CC1(C)CC(NC(=O)[C@H](Cc2ccc3ccccc3c2)NC(=NC2CCCCC2)NC2CCCCC2)CC(C)(C)N1 [M222] | 6.8 | 15 µM | – | – | – | Inact | –
CN(C)CCCNC(=O)C(Cc1ccc2ccccc2c1)NC(=O)C=Cc1c(F)c(F)c(F)c(F)c1F (stereo not drawn) [M526] | 5.4 | 10 µM | – | – | – | Inact | –
CN(C)c1ccc(C=CC(=O)NC(Cc2ccc(OCc3c(Cl)cccc3Cl)cc2)C(=O)NC2CC(C)(C)NC(C)(C)C2)cc1 (stereo not drawn) [M582] | 5.4 | 3 µM | – | – | – | 9.5 | –
DDD-(Pac-2Nal-Arg-NH2)2 [M498] | – | – | 4.9 | 24 µM | Inact | – | –
